Reference: patent publication US9840483B2, “Radiomitigating pharmaceutical formulations” (The Regents of the University of California, priority 2013, dated 2017)
≈ marks a conversion by molar mass, not a printed value.

Legend:
[1] = Solubility; format: physicochemical
[2] = system: Til-1 murine lymphocyte cells; assay: Mitigation of radiation-induced apoptosis in vitro: viability of irradiated Til-1 cells (ATPlite) screen; format: cell-based; settings: Mus musculus, light or radiation study, added 1 hour after 2 Gy, viability 24 h after radiation, relative to control irradiated value (100%), read-out: In Vitro (Mitigation cell viability %)
Procedure: The ability of compounds from Example 1 to mitigate radiation-induced apoptosis in vitro relative to control values (100%) is shown in FIG. 1. Briefly, 100,000 small-molecules were screened at 10 μM final concentration in 1% dimethylsulfoxide (DMSO) using the viability of a murine lymphocyte line as a readout (Mitigation cell viability %). Ten thousand Til-1 murine lymphocyte cells were dispensed into each well of 384-well plates using a Multidrop 384 (Thermo Scientific, Waltham, Mass.) The Til-1 cells were irradiated at the dose of 2 Gy. After 1 hour, the small-molecules were added. Twenty-four hours after the radiation, cell viability was assayed by luminesce-based measurement of ATP production (ATPlite, Perkin-Elmer, Waltham, Mass.) with a SpectraMax M5 microplate reader (Molecular Devices, Sunnyvale, Calif.). The Z′ factor for the assay was >0.5. See Zhang, J. H., Chung, T. D., Oldenburg, K. R. “A Simple Statistical Parameter for Use in Evaluation and Validation of High Throughput Screening Assays,” J Biomol Screen 4:67, 1999. A positive readout was >130% of the control irradiated value.

[3] = system: myeloid suppressor cells; assay: In vivo anti-inflammatory activity, generation of myeloid suppressor cells; settings: data not shown
[4] = system: C57Bl/6 mice; assay: Localized abdominal irradiation survival; format: in vivo; settings: 16 and 18 Gy abdominally
[5] = system: TNF-α mRNA; assay: Cytokine mRNA expression in LPS-stimulated bone marrow-derived macrophages (qPCR); format: cell-based, murine; settings: added to bone marrow-derived macrophages 1 hr after LPS, RT-PCR
Procedure: Additionally, bone marrow-derived macrophages (BMDMs) were derived by 7 days culture of marrow cells in medium containing 10% FBS and CSF-1 conditioned medium. The serum concentration was reduced to 2% FBS 16 h before stimulation with LPS for 30 min, treatment with drug and incubation for another 3.5 h (4 h total with LPS). Total cellular RNA was isolated by trizol and cDNA synthesized using iScript from BioRad. Gene expression was measured by qPCR and analyzed using the standard curve method, normalized to L32.

[6] = system: induced peritoneal macrophages; assay: Activation status of induced peritoneal macrophages after subcutaneous treatment of control or WBI mice; format: in vivo; settings: for TNF-α production of induced peritoneal cells in response to LPS after treatment in vivo: compound given subcutaneously, macrophages harvested day 4, incubated 24 h with LPS
Procedure: To determine if compound 2 (5355512), injected subcutaneously would affect the activation status of induced peritoneal macrophages, compound 2 (5355512) was given subcutaneously to control or WBI (5 Gy) and peritoneal macrophages harvested at day 4 as before. Cells from these groups of mice were incubated for 24 h with LPS or LPS then 512 (See FIG. 12). […] However, this “priming” effect was less when WBI and Compound 2 (5355512) were combined in vivo.

[7] = system: endogenous colony forming units in the spleens; assay: Endogenous colony forming units in spleens after WBI; format: in vivo, mice; settings: for Average endogenous CFU per spleen / Total endogenous CFU in spleens: 10 days after WBI at 6.5 Gy, 7.0 Gy, and 7.5 Gy
Description: For example, Compound 2 (5355512) increased the total endogenous CFU in spleens and average endogenous CFU per spleen, at 10 days after whole body irradiation (WBI) at varying doses (e.g. 6.5 Gy, 7.0 Gy, and 7.5 Gy). (See FIG. 13).

[8] = system: Lewis lung (LLC) tumor lung colonies; assay: Lewis lung (LLC) model of artificial metastasis; format: in vivo, mice
Procedure: The Lewis lung (LLC) model of artificial metastasis was used to test the effects of the drug on the growth of tumor lung colonies in vivo and on radiation response. This was chosen because it is easy to see any drug effects on growth promotion and radioprotection in multiple tumors simultaneously. Specifically, C57Bl/6 mice and C3H mice were injected intravenously with 5×10^4 tumor cells. Subcutaneous injections of compound 2 (5355512) were started on day 4 when the tumors were already established in the lung. A daily dose of 20 mg/kg for 5 days was used to bias the experiment in favor of any tumor growth promotion. Local thoracic irradiation (LTI) was started on day 5 with 4 Gy daily doses for 3 days. This is higher than conventional 2 Gy to compensate for the rapid growth of murine tumors, but is still well within the higher ranges used clinically in hypofractionated exposures. The colonies were counted on day 14. […] LTI alone decreased the number of colonies by 40%.

[9] = system: C3Hf/Kam and C57B16/J mice; assay: Animal Whole Body Irradiation (WBI) assay, mitigation of lethality; format: in vivo; settings: for Mitigation of WBI lethality at 5 mg/kg: 5 mg/kg injected subcutaneously; for Most effective dose in dose response: C3H male mice, compared with 1, 2, 10, 40, or 75 mg/kg; for Mitigation of WBI lethality in C57Bl/6 female mice: LD70/30 dose 8.509 Gy; for Survivors at day 30: lowest dosage 5 mg/kg subcutaneously, superior to 40 and 75 mg/kg; for Mitigation of WBI lethality, oral gavage 5 mg/kg / Mitigation of WBI lethality, oral gavage 25 mg/kg: orally by gavage, 5 daily doses starting 24 hours post-WBI, C3H and C57Bl/6 strains; for Effect of increasing the single dose: single dose increased to 25 mg/kg, 24 hours after WBI; for Mitigation of WBI lethality, single dose: single dose of 5 mg/kg given 24 hours after WBI
Procedure: Briefly, Animal Whole Body Irradiation (WBI) Assays were conducted with C3Hf/Kam and C57B16/J mice. The mice were bred and maintained in a strict gnotobiotic environment in the American Association of Laboratory Animal Care-Accredited Animal Facilities of Department of Radiation Oncology, UCLA. The Animal Care and Use Committee approved all experiments, which were performed in accordance with all local and national guidelines for the care and use of animals. Mice, 9-12 weeks old, were given WBI using a Gamma cell 40 irradiator (Cs137 source; Atomic Energy of Canada, Ltd.) at a dose rate of […]. Mice were monitored for at least 30 days and defined criteria for humane euthanasia was used as an endpoint.
Compounds were typically dissolved in 15 μL DMSO and suspended in 1 mL of 1% Cremphor EL in water for administration in 0.2 mL volumes. […] All mice, including controls, received the same diluent as the experimental groups. The chosen compounds were administered to the mice 5 times at 24 h intervals, starting 24 hours after WBI at LD70/30 (7.725 Gy for the C3H strain) doses. Similar data were obtained with a single dose and at 48 hours after radiation exposure in both mouse strains. Both subcutaneous and oral routes were effective. The compounds provided greatly elevated animals survival level as compared to control group.
Dose response experiments were executed in a manner similar to the WBI Assay described in Example 3. […] Both Compound 2 (53555.12) and Compound 3 (5346360) were effective in C57Bl/6 female mice in this case mitigating against LD70/30 doses of 8.509 Gy due to the relative radioresistance of this strain relative to C3Hs. […] When given orally by gavage, Compound 2 (535551.2) in 5 daily doses starting at 24 hours post-WBI was effective at 5 mg/kg in both C3H and C57Bl/6 strains, but not at 25 mg/kg.
Probit analyses of the effect of varying the radiation dose with Compound 2 (5355512) (5 mg/kg), and Compound 3 (5346360) (5 mg/kg), or 5 (5116319) (75 mg/kg) given subcutaneously for 5 days starting 24 hours after WBI, is shown in FIG. 6, with 95% confidence limits shown for LD50 values. The dose-response curves are steep with the dose modifying factors varying with the level of effect and drug, but were in the range 1.04-1.09. Such factors have to be considered against the level of the control and the reason for lethality. In this case, hematological insufficiency and not infection is the cause of death and as a result the radioresistance of the C3H strain is relatively high.
Compounds P1, P2, and P3, analogs of Compound 2 (5355512), were synthesized according to standard protocols. […] The analogs were injected subcutaneously 5 times over 5 clays at 5 mg/kg. Compound P2 elicited 100% survival after 30 days.

[10] = system: C3H mice and C57 mice; assay: Local thoracic irradiation, radiation pneumonitis and fibrosis; format: in vivo; settings: local thoracic irradiation 14 and 18 Gy
[11] = system: TNF-α production; assay: TNF-α production by LPS-stimulated peritoneal macrophages (ELISA); format: cell-based, murine; settings: for TNF-α production: added to stimulated peritoneal macrophages 1 hr after LPS, supernatants at 24 hrs, ELISA
Procedure: NPSPs were tested for their anti-inflammatory ability using murine macrophages. […] Briefly, peritoneal macrophages (PMs) were induced by intraperitoneal, injection of 150 μg MIS416 (Innate Immunotherapeutics, NZ) and harvested on day 4 by peritoneal wash out with PBS. Culture supernatants were harvested at 24 hrs and cytokines tested by ELISA (BD Biosciences, SD).

[12] = Breakdown products identified in vivo by mass spectrometry; settings: analog of Compound 2
[13] = injected subcutaneously 5 times over 5 days at 5 mg/kg

With `O=[N+]([O-])c1ccc(S(=O)(=O)N2CCN(c3ccc(F)cc3)CC2)cc1` [Compound 1, 1-(4-fluorophenyl)-4-[(4-nitrobenzene)sulfonyl]piperazine] the solubility [1] was 26.6 µM (≈ 9.72 µg/mL) and the viability at 10 µM [2] was 188%.

With `O=[N+]([O-])c1ccc(S(=O)(=O)N2CCN(c3ccccc3)CC2)cc1` [Compound 2, 1-[(4-nitrobenzene)sulfonyl]-4-phenylpiperazine] the “Anti-inflammatory activity in vivo” value [3] was “showed anti-inflammatory activity”, the “Mitigation of abdominal radiation” value [4] was “mitigation of abdominal radiation” and the “Expression of TNF-α mRNA and other cytokines” value [5] was “inhibit expression of TNF-α mRNA, and other cytokines”. The “Priming effect when WBI and compound combined in vivo” value ([6]; WBI (5 Gy) plus compound subcutaneously) was “less”, the “TNF-α production of induced peritoneal cells in response to LPS after treatment in vivo” value [6] was ““primed” induced peritoneal cells to produce TNF-α” and the “TNF-α production of induced peritoneal cells in response to LPS after treatment in vivo” value ([6]; listed as compound 2) was “induces peritoneal macrophages to produce TNF-α”. The “TNF-α production after addition of compound in vitro” value ([6]; harvested cells incubated with LPS then compound) was “blunted TNF-α production”, the solubility [1] was 66.1 µM (≈ 23 µg/mL) and the “Average endogenous CFU per spleen” value [7] was “increased”. The “Total endogenous CFU in spleens” value [7] was “increased”, the “Average endogenous CFU per spleen” value ([7]; listed as compound 2) was “increases” and the “Total endogenous CFU in spleens” value ([7]; listed as compound 2) was “increases”. The “Number of endogenous colony forming units in the spleens” value ([7]; mice that had received LD70/30 radiation doses) was “increased”, the “Number of colonies with LTI plus drug versus LTI alone” value ([8]; 20 mg/kg daily for 5 days plus local thoracic irradiation 4 Gy daily for 3 days from day 5) was “not further decreased” and the “Decrease in number of lung tumor colonies” value ([8]; 20 mg/kg subcutaneously daily for 5 days from day 4, colonies counted day 14, P<0.05) was 20%. For the same molecule, the “Size of lung tumor colonies” value ([8]; 20 mg/kg subcutaneously daily for 5 days from day 4, day 14) was “smaller in size”, the viability at 10 µM [2] was 182% and the “Mitigation of WBI lethality at 5 mg/kg” value [9] was “effective”. For the same molecule, the “Most effective dose in dose response” value [9] was 5 mg/kg, the “Mitigation of WBI lethality in C57Bl/6 female mice” value [9] was “effective” and the “Survivors at day 30” value [9] was 100%. For the same molecule, the “Mitigation of WBI lethality, oral gavage 5 mg/kg” value [9] was “effective”, the “Mitigation of WBI lethality, oral gavage 25 mg/kg” value [9] was “not” and the “Mitigation of WBI lethality, single dose at 48 hours” value ([9]; single dose given 48 hours after WBI) was “Some activity was retained”. For the same molecule, the “Mitigation of WBI lethality, single dose at 72 hours” value ([9]; single dose given 72 hours after WBI) was “not”, the “Effect of increasing the single dose” value [9] was “did not improve efficacy” and the “Mitigation of WBI lethality, single dose” value [9] was “effective”. The “Survival post thoracic radiation” value [10] was “supported survival of C3H mice and C57 mice to 100 days”, the TNF-α production [11] was “inhibit TNF-α production” and the “Anti-inflammatory activity: LPS-induced production of tumor necrosis factor and other inflammatory cytokines” value ([11]; murine macrophages) was “showed anti-inflammatory activity”.

In the case of `O=[N+]([O-])c1ccc(S(=O)(=O)N2CCN(c3cccc(Cl)c3)CC2)cc1` [Compound 3], the “Expression of TNF-α mRNA and other cytokines” value [5] is reported as “inhibit expression of TNF-α mRNA, and other cytokines”, the solubility [1] is reported as 6.5 µM (≈ 2.48 µg/mL) and the viability at 10 µM [2] is reported as 174%. For the same molecule, the “Mitigation of WBI lethality at 5 mg/kg” value [9] was “effective”, the “Most effective dose in dose response” value [9] was 5 mg/kg and the “Mitigation of WBI lethality in C57Bl/6 female mice” value [9] was “effective”. The “Survivors at day 30” value [9] was 100%, the “Mitigation of WBI lethality, oral gavage 5 mg/kg” value [9] was “inactive” and the “Mitigation of WBI lethality, oral gavage 25 mg/kg” value [9] was “inactive”. The “Effect of increasing the single dose” value [9] was “did not improve efficacy”, the “Mitigation of WBI lethality, single dose” value [9] was “effective” and the TNF-α production [11] was “inhibit TNF-α production”.

For `O=[N+]([O-])c1ccc(S(=O)(=O)N2CCN(C/C=C/c3ccccc3)CC2)cc1` [Compound 4, 1-[(4-nitrobenzene) Sulfonyl]-4-[(2E)-3-phenylprop-2-en-1-yl]piperazine], the solubility [1] was 20.4 µM (≈ 7.9 µg/mL) and the viability at 10 µM [2] was 163%.

For `CCN(CC)S(=O)(=O)c1ccc([N+](=O)[O-])cc1` [Compound 5, N,N-diethyl-4-nitrophenyl-1-sulfonamide], the solubility [1] was 513 µM (≈ 132 µg/mL), the viability at 10 µM [2] was 161% and the TNF-α production [11] was “able to inhibit TNF-α production”.

In the case of `O=[N+]([O-])c1ccc(S(=O)(=O)N2CCNCC2)cc1` [Compound P1], the Breakdown product identification [12] is reported as “natural breakdown product identified in vivo”, the Solubility in water [1] is reported as “soluble in water” and the “Mitigation of WBI lethality by analogs” value [9, 13] is reported as “effective”.

In the case of `NCCNS(=O)(=O)c1ccc([N+](=O)[O-])cc1` [Compound P2], the Solubility in water [1] is reported as “soluble in water” and the “Survival after 30 days” value [9, 13] is reported as 100%.

With `NCCCCCCCCNS(=O)(=O)c1ccc([N+](=O)[O-])cc1` [Compound P3] the Solubility in water [1] was “soluble in water”.
